Measurements: publication PMC7619385 (ACS infectious diseases, 2025)
Read-outs that look alike come from different tables or passages of the source.

Target: T1, LmxCLK1 (Leishmania mexicana, UniProt E9AMP2)
T1 sequence (E9AMP2 1-422): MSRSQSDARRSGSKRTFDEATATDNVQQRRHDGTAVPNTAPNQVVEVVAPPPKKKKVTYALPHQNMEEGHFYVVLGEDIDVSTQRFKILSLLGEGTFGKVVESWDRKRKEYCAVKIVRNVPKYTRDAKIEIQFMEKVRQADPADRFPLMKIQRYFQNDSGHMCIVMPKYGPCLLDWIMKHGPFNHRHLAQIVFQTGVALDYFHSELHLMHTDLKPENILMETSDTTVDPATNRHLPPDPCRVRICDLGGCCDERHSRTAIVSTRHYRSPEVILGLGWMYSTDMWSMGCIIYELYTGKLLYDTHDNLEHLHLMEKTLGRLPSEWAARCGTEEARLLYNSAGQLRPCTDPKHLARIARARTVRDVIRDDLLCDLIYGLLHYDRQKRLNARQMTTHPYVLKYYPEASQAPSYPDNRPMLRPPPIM
Experiment: biochemical
Format: binding

[1] = DSF, 10 µM compound, 2 µM LmxCLK1, Run 1
[2] = DSF, 10 µM compound, 2 µM LmxCLK1, Run 2
[3] = DSF, 10 µM compound, 2 µM LmxCLK1, mean of two runs
[4] = DSF, 10 µM compound, 2 µM LmxCLK1, Run 1, read-out: ΔTm Run 1
[5] = DSF, 10 µM compound, 2 µM LmxCLK1, Run 2, read-out: ΔTm Run 2
[6] = DSF, 10 µM compound, 2 µM LmxCLK1, mean of two runs, read-out: ΔTm Average

COc1c(C)c(C(=O)c2ccc(N)c(C(=O)[O-])c2)n2ccccc12.[Na+] [SSR128129E]
ΔTm Average: -0.1
ΔTm Run 1: -0.1
ΔTm Run 2: -0.1

Oc1ccc(Nc2nc(-c3ccc(Cl)cc3)cs2)cc1 [SKI II]
ΔTm Run 1 [1]: 0.1 °C
ΔTm Run 2 [2]: 0.1 °C
ΔTm Average [3]: 0.1 °C

S-Ruxolitinib (INCB018424)
ΔTm Run 1 [1]: 0.6 °C
ΔTm Run 2 [2]: 0.6 °C
ΔTm Average [3]: 0.6 °C

CN(c1ncccc1CNc1nc(Nc2ccc3c(c2)CC(=O)N3)ncc1C(F)(F)F)S(C)(=O)=O [PF-562271]
ΔTm Run 1 [1]: 0.3 °C
ΔTm Run 2 [2]: -0.1 °C
ΔTm Average [3]: 0.1 °C

COc1cc2ncc(-c3ccccc3)nc2cc1OC [Tyrphostin AG 1296]
ΔTm Run 1 [1]: 0.3 °C
ΔTm Run 2 [2]: 0.1 °C
ΔTm Average [3]: 0.2 °C

Cc1nc(Nc2[nH]nc3c2CN(C(=O)N[C@H](CN(C)C)c2ccccc2)C3(C)C)c2sccc2n1 [PF-3758309]
ΔTm at 10 µM [4]: 0.7 °C
ΔTm at 10 µM [5]: 0.5 °C
ΔTm at 10 µM [6]: 0.6 °C

CC1(C)CNc2cc(NC(=O)c3cccnc3NCc3ccncc3)ccc21.O=P(O)(O)O.O=P(O)(O)O [Motesanib Diphosphate (AMG-706)]
ΔTm Run 1 [1]: 0.3 °C
ΔTm Run 2 [2]: 0.1 °C
ΔTm Average [3]: 0.2 °C

FC(F)(F)c1ccc(/C=C/c2nc(COc3ccc(CCCCn4ccnn4)cc3)co2)cc1 [Mubritinib (TAK 165)]
ΔTm Average: 0.2 °C
ΔTm Run 1: 0.4 °C
ΔTm Run 2: 0 °C

Cl.Cl.Fc1cc(-c2cccc3ncc(-c4cnn(C5CCNCC5)c4)nc23)cc(F)c1CN1CCOCC1 [NVP-BSK805 2HCl]
ΔTm Run 1 [1]: 0.9 °C
ΔTm Run 2 [2]: 0.7 °C
ΔTm Average [3]: 0.8 °C

Cc1cc(Nc2cc(N3CCN(C)CC3)nc(Sc3ccc(NC(=O)C4CC4)cc3)n2)n[nH]1 [VX-680 (Tozasertib)]
ΔTm Run 1 [1]: -0.3 °C
ΔTm Run 2 [2]: -0.4 °C
ΔTm Average [3]: -0.3 °C

Cc1cc(N2CCOCC2)cc2[nH]c(-c3c(NC[C@@H](O)c4cccc(Cl)c4)cc[nH]c3=O)nc12 [BMS-536924]
ΔTm Run 1 [1]: 0.2 °C
ΔTm Run 2 [2]: 0.1 °C
ΔTm Average [3]: 0.1 °C

CC(C)(C)Cn1c(N)nc2ccc(-c3[nH]c(C(C)(C)C)nc3-c3ccc(F)cc3)nc21 [LY2228820]
ΔTm at 10 µM [4]: -0.3 °C
ΔTm at 10 µM [5]: -0.3 °C
ΔTm at 10 µM [6]: -0.3 °C

O=C(Nc1ccc(-c2ccnc(Nc3ccc(N4CCOCC4)cc3)n2)cc1)C1CCCN1 (stereo not drawn) [XL019]
ΔTm at 10 µM [4]: 0.6 °C
ΔTm at 10 µM [5]: 0.4 °C
ΔTm at 10 µM [6]: 0.5 °C

Nc1nc(Nc2ccc(S(N)(=O)=O)cc2)nn1C(=O)c1c(F)cccc1F [JNJ-7706621]
ΔTm at 10 µM [4]: 1.4 °C
ΔTm at 10 µM [5]: 1.7 °C
ΔTm at 10 µM [6]: 1.6 °C

CN1CCC(CNc2ccc3ncc(-c4cccc(OC(F)(F)F)c4)n3n2)CC1 [SGI-1776 free base]
ΔTm Run 1 [1]: 0.7 °C
ΔTm Run 2 [2]: 0.5 °C
ΔTm Average [3]: 0.6 °C

CN1CCN(C2CCN(C(=O)Nc3cc(Oc4ccc(NC(=O)C5(C(=O)Nc6ccc(F)cc6)CC5)c(F)c4)ccn3)CC2)CC1 [Golvatinib (E7050)]
ΔTm at 10 µM (read-out: ΔTm Average): 0.6 °C
ΔTm at 10 µM (read-out: ΔTm Run 1): 0.5 °C
ΔTm at 10 µM (read-out: ΔTm Run 2): 0.7 °C

CC(C)(C)NS(=O)(=O)c1cncc(-c2cc(F)c3nc(N)nn3c2)c1 [CZC24832]
ΔTm at 10 µM [4]: 0 °C
ΔTm at 10 µM [5]: -0.2 °C
ΔTm at 10 µM [6]: -0.1 °C

Cn1cc(-c2ccc3ncc(Cc4ccc5ncccc5c4)n3n2)cn1 [NVP-BVU972]
ΔTm Run 1 [1]: 0.3 °C
ΔTm Run 2 [2]: 0.0 °C
ΔTm Average [3]: 0.2 °C

COc1cc2c(Oc3ccc4[nH]c(C)cc4c3F)ncnc2cc1OCCCN1CCCC1 [Cediranib (AZD2171)]
ΔTm Run 1 [1]: 0.5 °C
ΔTm Run 2 [2]: 0.1 °C
ΔTm Average [3]: 0.3 °C

Cc1ccc(Nc2nccc(N(C)c3ccc4c(C)n(C)nc4c3)n2)cc1S(N)(=O)=O.Cl [Pazopanib HCl (GW786034 HCl)]
ΔTm Run 1 [1]: -0.1 °C
ΔTm Run 2 [2]: 0.0 °C
ΔTm Average [3]: -0.1 °C

COc1cc(N2CCC(N3CCN(C)CC3)CC2)ccc1Nc1ncc(Cl)c(Nc2ccccc2P(C)(C)=O)n1 [AP26113]
ΔTm at 10 µM [4]: 1.1 °C
ΔTm at 10 µM [5]: 0.9 °C
ΔTm at 10 µM [6]: 1 °C

Nc1cc(C(F)(F)F)c(-c2cc(N3CCOCC3)nc(N3CCOCC3)n2)cn1 [BKM120 (NVP-BKM120)]
ΔTm Run 1 [1]: 0.1 °C
ΔTm Run 2 [2]: 0.2 °C
ΔTm Average [3]: 0.1 °C

CO[C@H]1C[C@@H]2CC[C@@H](C)[C@@](O)(O2)C(=O)C(=O)N2CCCC[C@H]2C(=O)O[C@H]([C@H](C)C[C@@H]2CC[C@H](n3cnnn3)[C@H](OC)C2)CC(=O)[C@H](C)/C=C(\C)[C@@H](O)[C@@H](OC)C(=O)[C@H](C)C[C@H](C)/C=C/C=C/C=C/1C [Zotarolimus(ABT-578)]
ΔTm Run 1 [1]: 0.2 °C
ΔTm Run 2 [2]: 0.0 °C
ΔTm Average [3]: 0.1 °C

COc1ncc(-c2ccc3nccc(-c4ccnnc4)c3c2)cc1NS(=O)(=O)c1ccc(F)cc1F [GSK2126458 (GSK458)]
ΔTm Run 1 [1]: -0.2 °C
ΔTm Run 2 [2]: -0.3 °C
ΔTm Average [3]: -0.3 °C

COc1cc2c(Nc3ccc(NC(=O)c4ccccc4)cc3)ncnc2cc1OCCCN1CCOCC1 [ZM 447439]
ΔTm Run 1 [1]: 0.0 °C
ΔTm Run 2 [2]: -0.2 °C
ΔTm Average [3]: -0.1 °C

CNC(=O)c1nn(C)c2c1C(C)(C)Cc1cnc(Nc3ccc(N4CCN(C)CC4)cc3)nc1-2 [Milciclib (PHA-848125)]
ΔTm Run 1 [1]: 0.1 °C
ΔTm Run 2 [2]: -0.2 °C
ΔTm Average [3]: 0.0 °C

CC(C)(C)c1cc(/C=C(\C#N)C(N)=S)cc(C(C)(C)C)c1O [Tyrphostin AG 879]
ΔTm at 10 µM [4]: -0.1 °C
ΔTm at 10 µM [5]: -0.2 °C
ΔTm at 10 µM [6]: -0.2 °C

O=C1Nc2ccccc2/C1=C1/Nc2ccccc2C1=O [Indirubin]
ΔTm at 10 µM (read-out: ΔTm Average): 0 °C
ΔTm at 10 µM (read-out: ΔTm Run 1): 0.1 °C
ΔTm at 10 µM (read-out: ΔTm Run 2): -0.1 °C

N#Cc1ccc2[nH]c(O)c(-c3ccc(CN4CCOCC4)cn3)c2c1 [AZD1080]
ΔTm at 10 µM [4]: 0.1 °C
ΔTm at 10 µM [5]: -0.2 °C
ΔTm at 10 µM [6]: -0.1 °C

CS(=O)(=O)CCNCc1ccc(-c2ccc3ncnc(Nc4ccc(OCc5cccc(F)c5)c(Cl)c4)c3c2)o1.Cc1ccc(S(=O)(=O)O)cc1.Cc1ccc(S(=O)(=O)O)cc1 [Lapatinib (GW-572016) Ditosylate]
ΔTm Run 1 [1]: 0.3 °C
ΔTm Run 2 [2]: 0.0 °C
ΔTm Average [3]: 0.1 °C

S=C(NCc1ccc2c(c1)OCO2)N1CCN(c2ncnc3c2oc2ccccc23)CC1 [Amuvatinib (MP-470)]
ΔTm Run 1 [1]: 0.1 °C
ΔTm Run 2 [2]: 0.0 °C
ΔTm Average [3]: 0.1 °C

Cn1cnc2c(F)c(Nc3ccc(Br)cc3F)c(C(=O)NOCCO)cc21 [MEK162 (ARRY-162)]
ΔTm Run 1 [1]: -0.2 °C
ΔTm Run 2 [2]: -0.4 °C
ΔTm Average [3]: -0.3 °C

COc1ccc(S(=O)(=O)N(CCO)c2ccccc2CN(C)C/C=C/c2ccc(Cl)cc2)cc1.O=P(O)(O)O [KN-93 Phosphate]
ΔTm Run 1 [1]: 0.1 °C
ΔTm Run 2 [2]: -0.5 °C
ΔTm Average [3]: -0.2 °C

Nc1ncnc2c1c(-c1cccc(OCc3ccccc3)c1)cn2C1CC(CN2CCCC2)C1 (stereo not drawn) [NVP-ADW742]
ΔTm Run 1 [1]: 0.0 °C
ΔTm Run 2 [2]: -0.2 °C
ΔTm Average [3]: -0.1 °C

CNC(=O)c1ccc(C)c(-n2c(C)cc(OCc3ccc(F)cc3F)c(Br)c2=O)c1 [PH-797804]
ΔTm at 10 µM [4]: -0.1 °C
ΔTm at 10 µM [5]: -0.3 °C
ΔTm at 10 µM [6]: -0.2 °C

CCCNC(=O)Nc1ccc(Oc2ncnc3cc(OC)c(OC)cc23)cc1Cl [KRN 633]
ΔTm at 10 µM [4]: 0.1 °C
ΔTm at 10 µM [5]: -0.1 °C
ΔTm at 10 µM [6]: 0 °C

CSc1cccc(Nc2ncc3cc(-c4c(Cl)cccc4Cl)c(=O)n(C)c3n2)c1 [PD173955]
ΔTm Run 1 [1]: 0.0 °C
ΔTm Run 2 [2]: -0.3 °C
ΔTm Average [3]: -0.1 °C

O=c1cc(N2CCOCC2)oc2c(-c3ccccc3)cccc12 [LY294002]
ΔTm at 10 µM [4]: 0.5 °C
ΔTm at 10 µM [5]: 0.2 °C
ΔTm at 10 µM [6]: 0.3 °C

Cc1nc(NC(=O)N2CCC[C@H]2C(N)=O)sc1-c1csc(C(C)(C)C)n1 [A66]
ΔTm Average: 0 °C
ΔTm Run 1: 0.4 °C
ΔTm Run 2: -0.3

CO[C@H]1C[C@@H]2CC[C@@H](C)[C@@](O)(O2)C(=O)C(=O)N2CCCC[C@H]2C(=O)O[C@H]([C@H](C)C[C@@H]2CC[C@@H](OP(C)(C)=O)[C@H](OC)C2)CC(=O)[C@H](C)/C=C(\C)[C@@H](O)[C@@H](OC)C(=O)[C@H](C)C[C@H](C)/C=C/C=C/C=C/1C [Ridaforolimus (Deforolimus)]
ΔTm Run 1 [1]: 0.0 °C
ΔTm Run 2 [2]: 0.0 °C
ΔTm Average [3]: 0.0 °C

CN(C)Cc1cccc(N/C(=C2\C(=O)Nc3cc(C(=O)N(C)C)ccc32)c2ccccc2)c1 [BIX 02189]
ΔTm Average: -0.3
ΔTm Run 1: -0.2
ΔTm Run 2: -0.4

NC(=O)Nc1cc(-c2cccc(F)c2)sc1C(=O)N[C@H]1CCCNC1 [AZD7762]
ΔTm at 10 µM [4]: 3.5 °C
ΔTm at 10 µM [5]: 3.1 °C
ΔTm at 10 µM [6]: 3.3 °C

O=C1NCCc2[nH]c(-c3ccncc3)cc21 [PHA-767491]
ΔTm Run 1 [1]: 0.7 °C
ΔTm Run 2 [2]: 1.3 °C
ΔTm Average [3]: 1.0 °C

Cc1ccc(NC(=O)c2ccc(CN3CCN(C)CC3)cc2)cc1Nc1nc(-c2cccnc2)cs1 [Masitinib (AB1010)]
ΔTm Run 1 [1]: 0.3 °C
ΔTm Run 2 [2]: 0.2 °C
ΔTm Average [3]: 0.2 °C
